# Laboratory results published in patent publication US20260008793A1, “IONIZABLE CATIONIC LIPIDS INCORPORATING SILICON” (ALDEXCHEM KFT., priority 2022, published 2026).
# Experiments:
# [1] = LNP size, PDI and zeta potential by Dynamic Light Scattering (Method A); format: physicochemical; details: LNP formulated by Method A; for Zeta potential (mV): 1xPBS pH 7.4; for PDI / Size (nm): DLS; for Size (nm): Luciferase-mRNA loaded
# Outline: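 LNPs formulated by microfluidic mixing of mRNA in 10 mM citrate pH 4.0 with ethanolic lipid mix (ionizable lipid added to master mix) at 3:1 aqueous:lipid ratio, then dialysed (100 kDa MWCO). Size, PDI and zeta potential measured by dynamic light scattering.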
# HeLa cells = assay: Transfection efficiency with Luciferase-mRNA, Nano-Glo assay (Method A); format: cell-based; details: 100 ng Luciferase (SecNLuc) mRNA, 24 h, luminescence
# Outline: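 LNPs carrying secreted NanoLuc mRNA (100, 50 or 10 ng/well, in Opti-MEM) added to HeLa cells at ~80% confluence and incubated 24 h. Medium luciferase activity measured by Nano-Glo luminescence about 3 min after reagent addition; toxicity tested in parallel by resazurin.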
Structure (SMILES),Zeta potential (mV) [1],PDI [1],Size (nm) [1],Transfection* (Method A = 100 ng mRNA) (HeLa cells)
"CCCCCCCCOC(CCCCCN(CCCCCC(OCCCCCCCC)O[Si](C)(C)O[Si](C)(C)CCCCCCCC)CCC1CCCN1C)O[Si](C)(C)O[Si](C)(C)CCCCCCCC (centres unmarked) [Example 118, N-(2-(1-methylpyrrolidin-2-yl)ethyl)-6-(octyloxy)-N-(6-(octyloxy)-6-((1,1,3,3-tetramethyl-3-octyldisiloxaneyl)oxy)hexyl)-6-((1,1,3,3-tetramethyl-3-octyldisiloxaneyl)oxy)hexan-1-amine]",−15.92 mV,0.04,179.2 nm,57119.5
"CCCCCCCCO[Si](C)(C)OC(CCCCCCC)OCCCCCCN(CCCCO)CCC[C@@H](C)C1CCC2C3CCC4C[C@H](OC)CC[C@]4(C)C3CC[C@@]21C (stereo partly drawn) [Example 217, 13-heptyl-5-((4R)-4-((3R,10S,13R)-3-methoxy-10,13-dimethylhexadecahydro-1H-cyclopenta[a]phenanthren-17-yl)pentyl)-15,15-dimethyl-12,14,16-trioxa-5-aza-15-silatetracosan-1-ol]",−13.68 mV,0.897,178.1 nm,2231945
"CCCCCCCCCCSC(CCCC)C(=O)OCCCCCCN(CCCCO)CCCCCCOC(CCCCCCC)O[Si](C)(C)OCCCCCCCC (centres unmarked) [Example 169, 15-heptyl-7-(4-hydroxybutyl)-17,17-dimethyl-14,16,18-trioxa-7-aza-17-silahexacosyl 2-(decylthio)hexanoate]",−13.9 mV,0.09,159.7 nm,1379853
"CC/C=C\C/C=C\C/C=C\C/C=C\C/C=C\CCCCN(CCCCO)CCCCCCOC(CCCCCCC)O[Si](C)(C)O[Si](C)(C)CCCCCCCC (centres unmarked) [Example 199, 13-heptyl-5-((5Z,8Z,11Z,14Z,17Z)-icosa-5,8,11,14,17-pentaen-1-yl)-15,15,17,17-tetramethyl-12,14,16-trioxa-5-aza-15,17-disilapentacosan-1-ol]",−12.42 mV,0.08,164.3 nm,144984
"CC/C=C\C/C=C\C/C=C\C/C=C\C/C=C\CCCCN(CCCCO)CCCCCC[Si](C)(C)OC(CCCCCCC)OCCCCCCCC (centres unmarked) [Example 204, 14-heptyl-5-((5Z,8Z,11Z,14Z,17Z)-icosa-5,8,11,14,17-pentaen-1-yl)-12,12-dimethyl-13,15-dioxa-5-aza-12-silatricosan-1-ol]",−10.63 mV,0.056,140 nm,282773
"CCCCCCCCOC(CCCCCCC)O[Si](C)(C)OCCCCCCN(CCCCO)CCC[C@@H](C)C1CCC2C3CCC4C[C@H](OC)CC[C@]4(C)C3CC[C@@]21C (stereo partly drawn) [Example 225, 15-heptyl-5-((4R)-4-((3R,10S,13R)-3-methoxy-10,13-dimethylhexadecahydro-1H-cyclopenta[a]phenanthren-17-yl)pentyl)-13,13-dimethyl-12,14,16-trioxa-5-aza-13-silatetracosan-1-ol]",−13.58 mV,0.04,117.9 nm,503272
"CCCCCCCCC(SCCCCC)C(=O)OCCCCCCN(CCCCO)CCCCCCOC(CCCCCCC)O[Si](C)(C)O[Si](C)(C)CCCCCCCC (centres unmarked) [Example 182, 15-heptyl-7-(4-hydroxybutyl)-17,17,19,19-tetramethyl-14,16,18-trioxa-7-aza-17,19-disilaheptacosyl 2-(pentylthio)decanoate]",−12.56 mV,0.045,136.8 nm,227368
"CCCCCCCCCC(OCCCCCC)O[Si](C)(C)OCCCCCCN(CCCCO)CCCCCCOC(=O)C(CCCCCC)CCCCCCCC (centres unmarked) [Example 144, 18-(4-hydroxybutyl)-10,10-dimethyl-8-nonyl-7,9,11-trioxa-18-aza-10-silatetracosan-24-yl 2-hexyldecanoate]",−10.5 mV,0.15,133.9 nm,5688575
"CCCCCCCCOC(CCCCCN(CCO)CCCCCCCC(=O)OC(CCCCCCCC)CCCCCCCC)O[Si](C)(C)O[Si](C)(C)OCCCCCCCC (centres unmarked) [Example 192, heptadecan-9-yl 8-((2-hydroxyethyl)(6-(octyloxy)-6-((1,1,3,3-tetramethyl-3-(octyloxy)disiloxaneyl)oxy)hexyl)amino)octanoate]",−12.28 mV,0.042,175.0 nm,11507
"CCCCCCCCOC(CCCCCN(CCCCO)CCCCCCOC(=O)C(CCCCCC)CCCCCCCC)O[Si](C)(C)OCCCCCCCC (centres unmarked) [Example 130, 7-(4-hydroxybutyl)-15,15-dimethyl-13-(octyloxy)-14,16-dioxa-7-aza-15-silatetracosyl 2-hexyldecanoate]",−11.85 mV,0.418,587.6 nm,428552
"CCCCCCCCSC(CCCCCCC)O[Si](C)(C)OCCCCCCN(CCCCO)CCCCCCO[Si](C)(C)OC(CCCCCCC)SCCCCCCCC (centres unmarked) [Example 115, 15-heptyl-5-(10-heptyl-8,8-dimethyl-7,9-dioxa-11-thia-8-silanonadecyl)-13,13-dimethyl-12,14-dioxa-16-thia-5-aza-13-silatetracosan-1-ol]",0.3 mV,0.13,130.2 nm,1135215
"CCCCCCCCC(CCCCCC)C(=O)OCCCCCCN(CCCCO)CCCCCCOC(CCCCCCC)O[Si](C)(C)O[Si](C)(C)CCCCCCCC (centres unmarked) [Example 133, 15-heptyl-7-(4-hydroxybutyl)-17,17,19,19-tetramethyl-14,16,18-trioxa-7-aza-17,19-disilaheptacosyl 2-hexyldecanoate]",−10.68 mV,0.039,135.7 nm,73879.5
"CCCCCCCCOC(CCCCCN(CCCCO)CCC[C@@H](C)C1CCC2C3CCC4C[C@H](OC)CC[C@]4(C)C3CC[C@@]21C)O[Si](C)(C)OCCCCCCCC (stereo partly drawn) [Example 216, 5-((4R)-4-((3R,10S,13R)-3-methoxy-10,13-dimethylhexadecahydro-1H-cyclopenta[a]phenanthren-17-yl)pentyl)-13,13-dimethyl-11-(octyloxy)-12,14-dioxa-5-aza-13-siladocosan-1-ol]",−15.48 mV,0.228,269.1 nm,817325
"CCCCCCCC[Si](C)(C)O[Si](C)(C)OC(CCCCCCC)OCCCCCCN(CCCCO)CCCCCCOC(CCCCCCC)O[Si](C)(C)O[Si](C)(C)CCCCCCCC (centres unmarked) [Example 108, 13-heptyl-15,15,17,17-tetramethyl-5-(6-((1-((1,1,3,3-tetramethyl-3-octyldisiloxaneyl)oxy)octyl)oxy)hexyl)-12,14,16-trioxa-5-aza-15,17-disilapentacosan-1-ol]",−14.24 mV,0.211,198.5 nm,7926
"CCCCCCCCOC(CCCCCN(CCCCO)CCCCCCOC(=O)C(CCCCCC)CCCCCCCC)O[Si](C)(C)O[Si](C)(C)OCCCCCCCC (centres unmarked) [Example 134, 6-((4-hydroxybutyl)(6-(octyloxy)-6-((1,1,3,3-tetramethyl-3-(octyloxy)disiloxaneyl)oxy)hexyl)amino)hexyl 2-hexyldecanoate]",−11.99 mV,0.006,145.8 nm,398528
"CCCCCCCCOC(CCCCCN(CCO)CCCCCCCC(=O)OC(CCCCCCCC)CCCCCCCC)O[Si](C)(C)CCCCCCCC (centres unmarked) [Example 189, heptadecan-9-yl 8-((6-((dimethyl(octyl)silyl)oxy)-6-(octyloxy)hexyl)(2-hydroxyethyl)amino)octanoate]",−10.68 mV,0.066,170 nm,45731
"CCCCCCCCOC(CCCCCCC)O[Si](C)(C)CCCCCCN(CCCCO)CCCCCCOC(=O)C(CCCCCCCC)SCCCCC (centres unmarked) [Example 187, 16-heptyl-7-(4-hydroxybutyl)-14,14-dimethyl-15,17-dioxa-7-aza-14-silapentacosyl 2-(pentylthio)decanoate]",−14.47 mV,0.255,334.9 nm,838984
